# According to patent US20070036839A1, “Phosphorylated glucomannane polysaccharides containing 1-6 and 1-2 linkages increase weight gain in poultry” (priority 2005, published 2007):
# Experiment: Weekly hematology (CBC with differential); for Red Blood Cells HCT: test concentration or dose not given here; for White Blood Cells BASO: test concentration or dose not given here; for White Blood Cells EOS: test concentration or dose not given here; for White Blood Cells LYMP + MONO: test concentration or dose not given here; for White Blood Cells NEUT: test concentration or dose not given here; for White Blood Cells WBC: test concentration or dose not given here
# Format: in vivo, Male Ross x Ross broiler chickens
substance,measurement,setting,value
Candida utilis phosphoglucomannan [CUP],Others Het/Poly,"Day 3, dose group 1",14.67%
same,Red Blood Cells HCT,"Day 3, dose group 1",30.60%
same,White Blood Cells BASO,"Day 3, dose group 1",193.33 X/uL
same,White Blood Cells EOS,"Day 3, dose group 1",0.00 X/uL
same,White Blood Cells LYMP + MONO,"Day 3, dose group 1",2956.67 X/uL
same,White Blood Cells NEUT,"Day 3, dose group 1",516.67 X/uL
same,White Blood Cells WBC,"Day 3, dose group 1",3670 µL⁻¹
same,Others Het/Poly,"Day 3, dose group 3",20.33%
same,Red Blood Cells HCT,"Day 3, dose group 3",28.67%
same,White Blood Cells BASO,"Day 3, dose group 3",78.33 X/uL
same,White Blood Cells EOS,"Day 3, dose group 3",6.67 X/uL
same,White Blood Cells LYMP + MONO,"Day 3, dose group 3",2595.00 X/uL
same,White Blood Cells NEUT,"Day 3, dose group 3",820.00 X/uL
same,White Blood Cells WBC,"Day 3, dose group 3",3500 µL⁻¹
same,Others Het/Poly,"Day 3, dose group 20",17.67%
same,Red Blood Cells HCT,"Day 3, dose group 20",27.00%
same,White Blood Cells BASO,"Day 3, dose group 20",48.33 X/uL
same,White Blood Cells EOS,"Day 3, dose group 20",0.00 X/uL
same,White Blood Cells LYMP + MONO,"Day 3, dose group 20",2828.33 X/uL
same,White Blood Cells NEUT,"Day 3, dose group 20",623.33 X/uL
same,White Blood Cells WBC,"Day 3, dose group 20",3500 µL⁻¹
same,Others Het/Poly,"Day 7, dose group 1",21.00%
same,White Blood Cells BASO,"Day 7, dose group 1",85.00 X/uL
same,White Blood Cells EOS,"Day 7, dose group 1",0.00 X/uL
same,White Blood Cells LYMP + MONO,"Day 7, dose group 1",4665.00 X/uL
same,White Blood Cells NEUT,"Day 7, dose group 1",1250.00 X/uL
same,White Blood Cells WBC,"Day 7, dose group 1",6000 µL⁻¹
same,Others Het/Poly,"Day 7, dose group 3",21.33%
same,White Blood Cells BASO,"Day 7, dose group 3",193.33 X/uL
same,White Blood Cells EOS,"Day 7, dose group 3",0.00 X/uL
same,White Blood Cells LYMP + MONO,"Day 7, dose group 3",4253.33 X/uL
same,White Blood Cells NEUT,"Day 7, dose group 3",1220.00 X/uL
same,White Blood Cells WBC,"Day 7, dose group 3",5670 µL⁻¹
same,Others Het/Poly,"Day 7, dose group 20",25.67%
same,White Blood Cells BASO,"Day 7, dose group 20",113.33 X/uL
same,White Blood Cells EOS,"Day 7, dose group 20",0.00 X/uL
same,White Blood Cells LYMP + MONO,"Day 7, dose group 20",4050.00 X/uL
same,White Blood Cells NEUT,"Day 7, dose group 20",1503.33 X/uL
same,White Blood Cells WBC,"Day 7, dose group 20",5670 µL⁻¹
same,Others Het/Poly,"Day 15, dose group 1",41.33%
same,Red Blood Cells HCT,"Day 15, dose group 1",27.33%
same,White Blood Cells BASO,"Day 15, dose group 1",146.67 X/uL
same,White Blood Cells EOS,"Day 15, dose group 1",0.00 X/uL
same,White Blood Cells LYMP + MONO,"Day 15, dose group 1",4346.67 X/uL
same,White Blood Cells NEUT,"Day 15, dose group 1",3506.67 X/uL
same,White Blood Cells WBC,"Day 15, dose group 1",8000 µL⁻¹
same,Others Het/Poly,"Day 15, dose group 3",39.00%
same,Red Blood Cells HCT,"Day 15, dose group 3",31.00%
same,White Blood Cells BASO,"Day 15, dose group 3",153.33 X/uL
same,White Blood Cells EOS,"Day 15, dose group 3",0.00 X/uL
same,White Blood Cells LYMP + MONO,"Day 15, dose group 3",4796.67 X/uL
same,White Blood Cells NEUT,"Day 15, dose group 3",3383.33 X/uL
same,White Blood Cells WBC,"Day 15, dose group 3",8330 µL⁻¹
same,Others Het/Poly,"Day 15, dose group 20",45.33%
same,Red Blood Cells HCT,"Day 15, dose group 20",22.00%
same,White Blood Cells BASO,"Day 15, dose group 20",113.33 X/uL
same,White Blood Cells EOS,"Day 15, dose group 20",0.00 X/uL
same,White Blood Cells LYMP + MONO,"Day 15, dose group 20",3710.00 X/uL
same,White Blood Cells NEUT,"Day 15, dose group 20",2843.33 X/uL
same,White Blood Cells WBC,"Day 15, dose group 20",6670 µL⁻¹
same,Others Het/Poly,"Day 21, dose group 1",29.00%
same,Red Blood Cells HCT,"Day 21, dose group 1",30.00%
same,White Blood Cells BASO,"Day 21, dose group 1",240.00 X/uL
same,White Blood Cells EOS,"Day 21, dose group 1",0.00 X/uL
same,White Blood Cells LYMP + MONO,"Day 21, dose group 1",5440.00 X/uL
same,White Blood Cells NEUT,"Day 21, dose group 1",2320.00 X/uL
same,White Blood Cells WBC,"Day 21, dose group 1",8000 µL⁻¹
same,Others Het/Poly,"Day 21, dose group 3",26.00%
same,Red Blood Cells HCT,"Day 21, dose group 3",30.33%
same,White Blood Cells BASO,"Day 21, dose group 3",250.00 X/uL
same,White Blood Cells EOS,"Day 21, dose group 3",0.00 X/uL
same,White Blood Cells LYMP + MONO,"Day 21, dose group 3",6640.00 X/uL
same,White Blood Cells NEUT,"Day 21, dose group 3",2443.33 X/uL
same,White Blood Cells WBC,"Day 21, dose group 3",9330 µL⁻¹
same,Others Het/Poly,"Day 21, dose group 20",32.67%
same,Red Blood Cells HCT,"Day 21, dose group 20",31.00%
same,White Blood Cells BASO,"Day 21, dose group 20",306.67 X/uL
same,White Blood Cells EOS,"Day 21, dose group 20",0.00 X/uL
same,White Blood Cells LYMP + MONO,"Day 21, dose group 20",6746.67 X/uL
same,White Blood Cells NEUT,"Day 21, dose group 20",3280.00 X/uL
same,White Blood Cells WBC,"Day 21, dose group 20",10330 µL⁻¹
same,Others Het/Poly,"Day 28, dose group 1",42.00%
same,Red Blood Cells HCT,"Day 28, dose group 1",29.33%
same,White Blood Cells BASO,"Day 28, dose group 1",446.67 X/uL
same,White Blood Cells EOS,"Day 28, dose group 1",0.00 X/uL
same,White Blood Cells LYMP + MONO,"Day 28, dose group 1",4546.67 X/uL
same,White Blood Cells NEUT,"Day 28, dose group 1",3673.33 X/uL
same,White Blood Cells WBC,"Day 28, dose group 1",8670 µL⁻¹
same,Others Het/Poly,"Day 28, dose group 3",44.67%
same,Red Blood Cells HCT,"Day 28, dose group 3",30.00%
same,White Blood Cells BASO,"Day 28, dose group 3",560.00 X/uL
same,White Blood Cells EOS,"Day 28, dose group 3",0.00 X/uL
same,White Blood Cells LYMP + MONO,"Day 28, dose group 3",3323.33 X/uL
same,White Blood Cells NEUT,"Day 28, dose group 3",3450.00 X/uL
same,White Blood Cells WBC,"Day 28, dose group 3",7330 µL⁻¹
same,Others Het/Poly,"Day 28, dose group 20",45.00%
same,Red Blood Cells HCT,"Day 28, dose group 20",33.67%
same,White Blood Cells BASO,"Day 28, dose group 20",410.00 X/uL
same,White Blood Cells EOS,"Day 28, dose group 20",0.00 X/uL
same,White Blood Cells LYMP + MONO,"Day 28, dose group 20",4413.33 X/uL
same,White Blood Cells NEUT,"Day 28, dose group 20",3843.33 X/uL
same,White Blood Cells WBC,"Day 28, dose group 20",8670 µL⁻¹
same,Others Het/Poly,"Day 35, dose group 1",31.33%
same,Red Blood Cells HCT,"Day 35, dose group 1",29.67%
same,White Blood Cells BASO,"Day 35, dose group 1",253.33 X/uL
same,White Blood Cells EOS,"Day 35, dose group 1",0.00 X/uL
same,White Blood Cells LYMP + MONO,"Day 35, dose group 1",5046.67 X/uL
same,White Blood Cells NEUT,"Day 35, dose group 1",2700.00 X/uL
same,White Blood Cells WBC,"Day 35, dose group 1",8000 µL⁻¹
same,Others Het/Poly,"Day 35, dose group 3",39.67%
same,Red Blood Cells HCT,"Day 35, dose group 3",31.67%
same,White Blood Cells BASO,"Day 35, dose group 3",310.00 X/uL
same,White Blood Cells EOS,"Day 35, dose group 3",0.00 X/uL
same,White Blood Cells LYMP + MONO,"Day 35, dose group 3",4876.67 X/uL
same,White Blood Cells NEUT,"Day 35, dose group 3",3146.67 X/uL
same,White Blood Cells WBC,"Day 35, dose group 3",8330 µL⁻¹
same,Others Het/Poly,"Day 35, dose group 20",31.00%
same,Red Blood Cells HCT,"Day 35, dose group 20",28.67%
same,White Blood Cells BASO,"Day 35, dose group 20",350.00 X/uL
same,White Blood Cells EOS,"Day 35, dose group 20",0.00 X/uL
same,White Blood Cells LYMP + MONO,"Day 35, dose group 20",5230.00 X/uL
same,White Blood Cells NEUT,"Day 35, dose group 20",2420.00 X/uL
same,White Blood Cells WBC,"Day 35, dose group 20",8000 µL⁻¹
same,Others Het/Poly,"Day 42, dose group 1",50.00%
same,Red Blood Cells HCT,"Day 42, dose group 1",27.67%
same,White Blood Cells BASO,"Day 42, dose group 1",353.33 X/uL
same,White Blood Cells EOS,"Day 42, dose group 1",106.67 X/uL
same,White Blood Cells LYMP + MONO,"Day 42, dose group 1",3913.33 X/uL
same,White Blood Cells NEUT,"Day 42, dose group 1",4626.67 X/uL
same,White Blood Cells WBC,"Day 42, dose group 1",9000 µL⁻¹
same,Others Het/Poly,"Day 42, dose group 3",34.33%
same,Red Blood Cells HCT,"Day 42, dose group 3",27.50%
same,White Blood Cells BASO,"Day 42, dose group 3",710.00 X/uL
same,White Blood Cells EOS,"Day 42, dose group 3",0.00 X/uL
same,White Blood Cells LYMP + MONO,"Day 42, dose group 3",4816.67 X/uL
same,White Blood Cells NEUT,"Day 42, dose group 3",2806.67 X/uL
same,White Blood Cells WBC,"Day 42, dose group 3",8330 µL⁻¹
same,Others Het/Poly,"Day 42, dose group 20",43.00%
same,Red Blood Cells HCT,"Day 42, dose group 20",34.67%
same,White Blood Cells BASO,"Day 42, dose group 20",360.00 X/uL
same,White Blood Cells EOS,"Day 42, dose group 20",0.00 X/uL
same,White Blood Cells LYMP + MONO,"Day 42, dose group 20",4960.00 X/uL
same,White Blood Cells NEUT,"Day 42, dose group 20",4013.33 X/uL
same,White Blood Cells WBC,"Day 42, dose group 20",9330 µL⁻¹
same,Others Het/Poly,"Day 49, dose group 1",32.00%
same,Red Blood Cells HCT,"Day 49, dose group 1",30.00%
same,White Blood Cells BASO,"Day 49, dose group 1",370.00 X/uL
same,White Blood Cells EOS,"Day 49, dose group 1",0.00 X/uL
same,White Blood Cells LYMP + MONO,"Day 49, dose group 1",5266.67 X/uL
same,White Blood Cells NEUT,"Day 49, dose group 1",2696.67 X/uL
same,White Blood Cells WBC,"Day 49, dose group 1",8330 µL⁻¹
same,Others Het/Poly,"Day 49, dose group 3",31.33%
same,Red Blood Cells HCT,"Day 49, dose group 3",29.67%
same,White Blood Cells BASO,"Day 49, dose group 3",263.33 X/uL
same,White Blood Cells EOS,"Day 49, dose group 3",0.00 X/uL
same,White Blood Cells LYMP + MONO,"Day 49, dose group 3",6606.67 X/uL
same,White Blood Cells NEUT,"Day 49, dose group 3",3130.00 X/uL
same,White Blood Cells WBC,"Day 49, dose group 3",10000 µL⁻¹
same,Others Het/Poly,"Day 49, dose group 20",30.33%
same,Red Blood Cells HCT,"Day 49, dose group 20",31.33%
same,White Blood Cells BASO,"Day 49, dose group 20",236.67 X/uL
same,White Blood Cells EOS,"Day 49, dose group 20",0.00 X/uL
same,White Blood Cells LYMP + MONO,"Day 49, dose group 20",5846.67 X/uL
same,White Blood Cells NEUT,"Day 49, dose group 20",2583.33 X/uL
same,White Blood Cells WBC,"Day 49, dose group 20",8670 µL⁻¹
